No end group written: not given here.

The test system of series [1] is p815 cell. The experiment in a line: Cytotoxicity of T lymphocytes from Balb/C mice immunized with pH-sensitive liposomes comprising HIV peptides, Cr51 release. Conditions: mice immunized with pH-sensitive liposomes (POPE/CHOH 7:3) comprising the peptide. It is filed as in vivo, Balb/C mouse. How it is done:
(§1) In order to investigate whether pH-sensitive liposome as a carrier of peptides can induce CTL response specific to the virus from which the peptides are derived, pH-sensitive liposomes encapsulating synthetic peptides were prepared and cytotoxicity study were carried out in a serial manner. Since the cellular immunity of the pepitides which can bind HLA-A2, a human MHC class I molecule should be investigated employing human body, indirect experiment employing the peptides derived HIV and HCV proteins which can bind mouse MHC Class I molecule(see: Table 4 below), was carried out. In this regard, the pH-sensitive liposome comprising the peptides were obtained employing the phospholipid composition consisting of POPE/CHOH(7:3 in a molar ratio). Then, mice were immunized with the liposomes, T lymphocytes were isolated from the mice, and cytotoxicity of the T lymphocytes after recognition of target cells labelled with Cr^51 was determined.
In case of HIV, Balb/C mouse was immunized with pH-sensitive liposomes comprising R15K or T26K, and at 4 weeks after booster immunization, its spleen was dissected and homogenized in 2 ml of RPMI cell culture medium using a homogenizer. 2 ml of the homogenate thus obtained was added to 2 ml of ficoll and centrifuged at 1,500 rpm for 30 minutes. T lymphocytes located between ficoll and the cell culture medium were separated, added to 15 ml of RPMI-10 cell culture medium, centrifuged at 1,000 rpm, and washed three times with the RPMI-10 medium. The T lymphocytes were diluted to a cell concentration of 5×10^6/ ml into a 24 well-plate, and the immunized peptide antigen was added to a final concentration of 2 μM. Then, the cells were cultured at 37° C. for 3 days in a CO2 incubator containing 5% CO2 and used as effector cells. In case of HCV, 5 week-old C57BL/6 mouse was immunized with liposomes comprising DBL peptide antigen, and T lymphocytes were isolated in the same manner as above and used as effector cells. On the other hand, p815 cell(ATCC TIB64) having MHC Class I same as that of Balb/C mouse was used as a target cell in case of HIV, and RMA cell(see: Hosken, N. A. and Bevan, M. J., J. Exp. Med., 175:719(1992)) or EL4 cell(ATCC TIB39) having MHC Class I same as that of C57BL/6 mouse was used as a target cell in case of HCV.
100 μM of the immunized peptide was added to the respective target cells, reacted at 37° C. for 16 hours, and washed twice with RPMI cell culture medium. Then, radioactive sodium chromate(Cr^51) was added to the cells and reacted at 37° C. for 2 hours in a CO2 incubator. After reaction, the cells were washed sufficiently with RPMI cell culture medium to remove unreacted sodium chromate, mixed with effector cells washed with phosphate buffer solution in various mixing ratios shown in table 5 below, and reacted at 37° C. for 4 hours in a CO2 incubator. The resultant medium was collected and measured for the intensity of gamma ray to determine cytotoxicity of effector cells against target cells(see: Table 5).

Series [2] has as its system T2 cells. The experiment in a line: Cytotoxicity of peptide-stimulated blood cells (CTL) against T2 cells sensitized by synthesized peptides, Cr51 release. It is filed as cell-based, human. Conditions: for Specific cytotoxicity by CTL (%): T2 cells sensitized with 100 μg/ml peptide. How it is done: That is, blood positive to anti-HBV antibody(value obtained by ELISA: 1.0 or more) is collected from common blood donors, and centrifuged to harvest blood cells. The said peptides added in a concentration of 10 μg/ml to leukocytes remained after removing red blood cells from the blood cells, and incubated at 37° C. in a CO2 incubator maintained to contain 5% CO2. At 2 days after culture, 10 unit of interleukin-2 was added to the culture medium and the cells were further cultivated for 3 days. Then, blood cells having the same MHC were inactivated by mitomycin C and added to the culture medium as stimulating cells. And the peptides and interleukin-2 were added to the medium and the cells were further cultivated for 7 days. Then, it was determined whether the blood cells recognize and destruct T2 cells having a certain peptide at their surface, and the results were shown in Table 3 below and FIG. 2, respectively.
Destruction of T2 cell by cultured blood cell was determined as followings: 100 μg/ml of a peptide was added to T2 cells and reacted at 37° C. for 3 hours. Then, the cells were washed sufficiently to remove unreacted peptides, added with radioactive sodium chromate(Cr^51), and reacted at 37° C. for 2 hours in a CO2 incubator. And then, they were washed with RPMI medium sufficiently to remove unreacted sodium chromate, mixed with blood cells washed with PBS in a certain ratio, and reacted at 37° C. for 4 hours in a CO2 incubator. The resultant medium was collected and measured for intensity of gamma ray to determine cytotoxicity of the blood cells against T2 cell, i.e., target cell.

Series [3] addresses T1, HLA-A2.1, a human MHC Class I molecule (Homo sapiens, UniProt P04439, D140Y/D185E/D98H/E176V/E277Q/G131W/G231S/I119V/I121R/I166T/I218V/L300P/L318F/N151K/N90K/P208A/P217A/Q86G/Q94H/R138H/R169H/T345S).
T1 construct: endogenous in cells; host or cells: T2 cell line
The experiment in a line: Binding of synthetic peptides to MHC Class I molecules at the surface of T2 cell (BB7.2 antibody, fluorocytometry). It counts as cell-based. Conditions: peptide 1-100 μg/ml, 37° C., 4 hours; FIG. 1. How it is done: Seven different peptides including the peptides as disclosed in Table 1 above which were derived from HBV X protein were synthesized chemically and dissolved in phosphate buffered saline(hereinafter, referred to as “PBS”). In order to investigate whether the peptides can bind to MHC Class I molecules associated with induction of CTL, each peptide was added to T2 cell line in a concentration of 100, 64, 32, 16, 8, 4, 2 and 1 μg/ml, respectively, and reacted at 37° C. for 4 hours. And then, the cells were washed with PBS to remove unreacted peptides, added with BB7.2 antibody against HLA-A2.1, a human MHC Class I molecule, and reacted at 4° C. for 1 hour. The cells were washed with PBS again, added with fluorescein isothiocyanate(FITC)-conjugated anti-mouse immunoglobulin antibody, and reacted at 4° C. for 1 hour. Then, fluorescence of the cells was determined using fluorocytometer(FACScan, BECTON DICKINSON) and the results were shown in FIG. 1.
However, when T2 cells are cultivated in a medium containing peptides which can bind to MHC molecules, the peptides bind to MHC molecules at the surface of T2 cell to increase stability of MHC molecules, which results in increase in expression of MHC molecule. Based on the knowledge, binding of a specific peptide to MHC molecule at the surface of T2 cell can be analyzed by determining degree of binding of BB7.2 antibody to the cell surface.

Series [4] concerns RMA cell or EL4 cell. The experiment in a line: Cytotoxicity of T lymphocytes from C57BL/6 mice immunized with pH-sensitive liposomes comprising HCV peptide, Cr51 release. It is filed as in vivo, C57BL/6 mouse. Conditions: mice immunized with pH-sensitive liposomes (POPE/CHOH 7:3) comprising the peptide. The method, then: as §1
In case of HIV, Balb/C mouse was immunized with pH-sensitive liposomes comprising R15K or T26K, and at 4 weeks after booster immunization, its spleen was dissected and homogenized in 2 ml of RPMI cell culture medium using a homogenizer. 2 ml of the homogenate thus obtained was added to 2 ml of ficoll and centrifuged at 1,500 rpm for 30 minutes. T lymphocytes located between ficoll and the cell culture medium were separated, added to 15 ml of RPMI-10 cell culture medium, centrifuged at 1,000 rpm, and washed three times with the RPMI-10 medium. The T lymphocytes were diluted to a cell concentration of 5×10^6/ ml into a 24 well-plate, and the immunized peptide antigen was added to a final concentration of 2 μM. Then, the cells were cultured at 37° C. for 3 days in a CO2 incubator containing 5% CO2 and used as effector cells. […]
100 μM of the immunized peptide was added to the respective target cells, reacted at 37° C. for 16 hours, and washed twice with RPMI cell culture medium. […] The resultant medium was collected and measured for the intensity of gamma ray to determine cytotoxicity of effector cells against target cells(see: Table 5).

[5] abbreviates: Ratio of CTL against target cell 5:1.
Setting [6] is: Ratio of CTL against target cell 10:1.
[7] abbreviates: Ratio of CTL against target cell 25:1.

In the case of `CC[C@H](C)[C@H](NC(=O)[C@@H](NC(=O)[C@@H](NC(=O)[C@H](Cc1ccccc1)NC(=O)[C@H](C)NC(=O)[C@H](CCCNC(=N)N)NC(=O)CNC(=O)[C@@H]1CCCN1C(=O)CNC(=O)[C@H](CCCNC(=N)N)NC(=O)[C@H](CCC(N)=O)NC(=O)[C@@H](NC(=O)[C@@H](N)CCCNC(=N)N)[C@@H](C)CC)C(C)C)[C@@H](C)O)C(=O)NCC(=O)N[C@@H](CCCCN)C(=O)O` [R15K, RIQRGPGRAFVTIGK], the figures for the “Specific cytotoxicity by CTL (%)” value in series [1] (target cell:effector cell 1:10), in series [1] (target cell:effector cell 1:20) and in series [1] (target cell:effector cell 1:30) were 7.5%, 15% and 25%, respectively.

As for `CC[C@H](C)[C@H](NC(=O)[C@H](CCCNC(=N)N)NC(=O)[C@@H](NC(=O)[C@H](CCCNC(=N)N)NC(=O)[C@H](CCCCN)NC(=O)[C@H](CCCNC(=N)N)NC(=O)[C@@H](NC(=O)[C@H](CC(N)=O)NC(=O)[C@H](CC(N)=O)NC(=O)[C@H](CC(N)=O)NC(=O)[C@@H]1CCCN1C(=O)[C@H](CCCNC(=N)N)NC(=O)[C@@H](N)[C@@H](C)O)[C@@H](C)O)[C@@H](C)CC)C(=O)N[C@@H](CCC(N)=O)C(=O)N[C@@H](CCCNC(=N)N)C(=O)NCC(=O)N1CCC[C@H]1C(=O)NCC(=O)N[C@@H](CCCNC(=N)N)C(=O)N[C@@H](C)C(=O)N[C@@H](Cc1ccccc1)C(=O)N[C@H](C(=O)N[C@H](C(=O)N[C@H](C(=O)NCC(=O)N[C@@H](CCCCN)C(=O)O)[C@@H](C)CC)[C@@H](C)O)C(C)C` [T26K], the “Specific cytotoxicity by CTL (%)” value was 55% in series [1] (target cell:effector cell 1:10), 80% in series [1] (target cell:effector cell 1:20) and 87% in series [1] (target cell:effector cell 1:30).

With `CC(C)C[C@H](NC(=O)CNC(=O)[C@H](CC(C)C)NC(=O)[C@@H](NC(=O)[C@H](CCCNC(=N)N)NC(=O)[C@H](CCCCN)NC(=O)[C@H](Cc1c[nH]cn1)NC(=O)[C@H](CC(C)C)NC(=O)[C@@H](N)C(C)C)[C@@H](C)O)C(=O)O` [×4, VLHKRTLGL], the “Specific cytotoxicity by CTL (%)” value in series [2] (setting [5]) worked out at 8%; in series [2] (setting [6]), 16%; in series [2] (setting [7]), 21%.

With AMSTTDLEA [×5, AMSTTDLEA], the “Specific cytotoxicity by CTL (%)” value in series [2] (setting [5]) is reported as 16%; in series [2] (setting [6]), 24%; in series [2] (setting [7]), 31%.

In the case of “CLFKDWEEL (Hepatitis B virus) [×6, peptide derived from HBV X protein, position 115-123]”, in series [3], the “Binding to MHC Class I molecules at the surface of T2 cell” value is listed as “successfully bind”. Also, the results for the “Specific cytotoxicity by CTL (%)” value in series [2] (setting [5]), in series [2] (setting [6]) and in series [2] (setting [7]) were 11%, 16% and 23%, respectively. For the same compound, the “Recognition of peptide by cultured blood cells (CTL)” value in series [2] (blood cells from anti-HBV antibody positive donors) was “recognized by cultured blood cells”.

Consider DLMGYIPL [D8L, DLMGYIPL], for which the “Specific cytotoxicity by CTL (%)” value turned out to be 5.5% in series [4] (target cell:effector cell 1:10), 18% in series [4] (target cell:effector cell 1:20) and 30% in series [4] (target cell:effector cell 1:30).

For EIRLKVFVL [×7, EIRLKVFVL], the “Specific cytotoxicity by CTL (%)” value in series [2] (setting [5]) is given as 12%; in series [2] (setting [6]) it was 19%; in series [2] (setting [7]), 24%.

For the compound HLSLRGLFV [×3, HLSLRGLFV], the “Specific cytotoxicity by CTL (%)” value in series [2] (setting [5]) stood at 10%; in series [2] (setting [6]), 17%; in series [2] (setting [7]) it was 20%.

For TLPSPSSSA [×2, TLPSPSSSA], the “Specific cytotoxicity by CTL (%)” value in series [2] (setting [5]) was determined as 5%; in series [2] (setting [6]), 10%; in series [2] (setting [7]) it was 11%.

For VLCLRPVGA [×1, VLCLRPVGA], the “Specific cytotoxicity by CTL (%)” value worked out at 6% in series [2] (setting [5]), 11% in series [2] (setting [6]) and 15% in series [2] (setting [7]).

(Values after patent US6380359B1, “Liposomes comprising peptide antigens derived from X protein of hepatitis B virus” (Mogam Biotechnology Research Institute, priority 1998, dated 2002).)
